{
  "source": "patent US20110028401A1",
  "about": "“CRIPTO BLOCKING MOLECULES AND THERAPEUTIC USES THEREOF” (CONSIGLIO NAZIONALE DELLE RICERCHE, priority 2009, published 2011)",
  "key": {"ALK-4 receptor": {"molecular_target": "T1, ALK-4 receptor (Homo sapiens, UniProt P36896)", "T1 construct": "the extracellular domain of ALK-4 receptor fused to human Fc (R&D Systems); purchased R&D Systems", "T1 sequence (P36896 24-126 limits assumed)": "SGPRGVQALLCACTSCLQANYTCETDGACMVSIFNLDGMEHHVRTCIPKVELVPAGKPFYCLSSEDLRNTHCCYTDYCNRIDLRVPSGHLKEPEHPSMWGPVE", "assay": "ELISA binding of ALK-4 receptor to plate-coated peptide", "conditions": "peptide coated at 50 μM; ALK-4 50 to 200 ng/ml", "method": "To evaluate the binding of Cripto BP to either Cripto or ALK-4 receptor, BP or control peptides (CP; 50 μM) were coated on the surface of a 96-well microtiter plate and incubated over night at 4° C. Wells were washed five times with PBS Tween (PBT) and the aspecific sites blocked for 3 h at RT with 1% Bovine Serum Albumin (BSA) in PBS, 180 μL/well. Wells were washed as above, and the recombinant form of either ALK-4-humanFc chimeric receptor or Cripto protein in PBT were added at the indicated concentrations and incubated for 1 h at 37° C. followed by 1 hr at RT. After washing with PBT, to evaluate the binding of Cripto to 26-23-23, rabbit anti-Cripto IgG (6 μg/ml) were added to the plates and incubated 1 h at 37° C. and 1 hr at RT. After washing in PBT, a goat anti-rabbit […] (Santa Crutz) was added to the plate (0.3 μg/ml) and incubated 1 h at RT. Finally, the plate was developed as reported above. To evaluate the binding of ALK4 to 26-23-23, the extracellular domain of ALK-4 receptor fused to human Fc (R&D Systems) was added at the indicated concentrations and a goat anti-human Fc (Jackson ImmunoResearch; 1:1000) was used."}, "[1]": {"system": "Cripto-induced Smad2 phosphorylation", "assay": "Smad2 phosphorylation assay (Western blot) in cripto-/- embryoid bodies", "assay_type": "cell-based, mouse", "method": "Two day-old cripto^−/− Embryoid Bodies (EBs) were serum starved for 3 hrs in DMEM (GIBCO) without LIF and in low serum (0.5% FBS). Following starvation, EBs were incubated for 20 min at 37° C. with recombinant Cripto protein (0.5 µg/ml) either alone or in the presence of the indicated amount of peptides. Finally, EBs were dissolved in Laemmli lysis buffer and analyzed by Western blot using the Trans-Blot Semi-dry System (BIO-RAD), following manufacturer's instruction. Anti-Smad2 and anti-phospho-Smad2 (Ser465/467) Antibodies (Cell Signalling Technology) were used, following the manufacturer's instructions."}, "wild-type EBs": {"system": "wild-type EBs", "assay": "Cardiomyogenesis (beating areas) in wild-type embryoid bodies", "assay_type": "cell-based, mouse", "method": "Undifferentiated ESCs were cultured as previously described^55.\nGiven the neutralizing activity of the peptide, the authors then asked whether Cripto BP was able to block ALK-4/Smad2-dependent Cripto signalling in ESCs and thereby mimic the absence of cripto in an ESC differentiation assay. The authors first evaluated whether Cripto BP was able to prevent Cripto-induced Smad2 phosphorylation of serum starved 2 day-old cripto^−/− Embryoid Bodies (EBs), as assessed by Western blot analysis. Recombinant soluble Cripto protein stimulated Smad2 phosphorylation^35. This effect was not modified by the presence of increasing amounts of either Cripto DP or CP (2.5 μM and 25 μM) (FIG. 6a). […] The authors thus asked whether the neutralizing activity of Cripto BP on endogenous Cripto signalling was also able to block cardiomyogenesis in wild-type ESCs. To this end, 2 day-old wild-type EBs were treated with increasing amounts of either CP or Cripto BP, ranging from 5.0 to 25 μM, and the percentage of EBs containing beating areas was scored from days 8 to 12 of the differentiation (n=˜60 EBs/group; FIG. 6b). Given that the peptides were dissolved in DMSO, control untreated EBs were compared with DMSO treated EBs."}, "Parkinsonian rats": {"system": "Parkinsonian rats", "assay": "TH-ir neuron counts within striatal grafts", "assay_type": "in vivo, rat", "conditions": "tumor-free animals", "method": "Two days prior to grafting animals began cyclosporine-A immune suppression (10 mg/kg). Fourteen days post-lesioning selected animals (determined by behavioural rotations) were again anesthetized and stereotaxically injected with 1 μl of cell suspension at each of the 4 sites as previously described^29. Stereotaxic coordinates of 1st & 2nd Injection (from bregma): anterior 0.2 mm, lateral 3.0 mm, ventral 4.5 and 5.0 mm; 3rd & 4th Injection, anterior 1.0 mm, lateral 2.5 mm, ventral 4.5 and 5.0 mm; incisor bar 0 mm^57). ESCs were differentiated as outlined in FIG. 7a. In brief, ESC colonies were dissected away from the stromal feeder layer and dissociated using collagenase/dispase with agitation (700 μg/ml, Roche, for 20 min, 80 rpm). Cells were subsequently resuspended at a density of 3,000 cells/μl ready for grafting. Five rats received Sham injections (4 μl N2 media, 1 μl/site), 16 rats received a total of 12,000 ESCs (4×1 μl grafts) pre-treated with the Control peptide (of which 9 of these animals also received infusion of the Control peptide) and a further 16 rats received grafts pretreated with the Cripto blocking peptide (9 animals receiving infusion of the Cripto BP).\nThe peptide infusion was performed by implantation of a cannula into the striatum (Alzet brain infusion kit) connected to a subcutaneously placed osmotic minipump (Alzet) prefilled with either CP or Cripto BP. […]"}},
  "data": [
    {"compound": "C[S+]([O-])CCC(N)C(=O)N[C@@H](CSCc1ccccc1)C(=O)N[C@@H](CSCc1ccccc1)C(=O)N[C@@H](CCCCNC(=O)[C@H](CSCc1ccccc1)NC(=O)[C@H](CSCc1ccccc1)NC(=O)[C@@H](N)CC[S+](C)[O-])C(=O)N[C@@H](CCCCNC(=O)[C@H](CCCCNC(=O)[C@H](CSCc1ccccc1)NC(=O)[C@H](CSCc1ccccc1)NC(=O)[C@@H](N)CC[S+](C)[O-])NC(=O)[C@H](CSCc1ccccc1)NC(=O)[C@H](CSCc1ccccc1)NC(=O)[C@@H](N)CC[S+](C)[O-])C(=O)NCC(=O)O", "note": "(stereo partly shown) [Cripto BP]", "values": [
      {"measurement": "binding of ALK-4 receptor to immobilized peptide", "setting": "ALK-4 receptor", "result": "not ALK-4 specifically recognized"},
      {"measurement": "effect on Cripto-induced Smad2 phosphorylation", "setting": "[1]; 2 day-old cripto−/− EBs, Cripto 0.5 μg/ml, peptide 2.5 μM and 25 μM", "result": "inhibited"},
      {"measurement": "effect on Cripto-induced Smad2 phosphorylation", "setting": "[1]; peptide 25 μM (125× molar excess)", "result": "completely blocked"},
      {"measurement": "rhythmically contracting (beating) EBs", "setting": "wild-type EBs; 25 μM peptide, wild-type EBs, mean±SD", "result": "3.7%±3.5"},
      {"measurement": "effect on the percentage of beating EBs (cardiomyogenesis)", "setting": "wild-type EBs; 5.0 to 25 μM, scored days 8 to 12", "result": "dose-dependent inhibition of cardiomyogenesis"},
      {"measurement": "TH+ cell counts within the graft", "setting": "Parkinsonian rats; pre-treated ESCs + peptide infusion", "result": "10815±887"},
      {"measurement": "TH+ cells within the graft", "setting": "Parkinsonian rats; pre-treated ESCs without infusion", "result": "7491±1488"}
    ]}
  ]
}
